This note sets out measurements from PubChem BioAssay AID330 (DTP/NCI, 2004).

“And” between values parts separate entries of the source, which are not always exact repeats. Equal values may be shown once. Inconclusive results and toxic doses are left out.

For the assay, the system named is P388 leukemia ip, CD2F1 mice, survival T/C. The assay can be described thus: NCI In Vivo Anticancer Drug Screen. Data for tumor model P388 Leukemia (intraperitoneal) in CD2F1 (CDF1) mice. The conditions noted are these: endpoint: median survival time, higher = longer survival. An outline of the steps: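 Mice carrying the transplanted tumor received test compound or vehicle. Survival was recorded in each group, and the value is the treated-group measurement divided by that of the vehicle-treated control group.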

The mark [1] stands for this setting: dose: 60.0 mg/kg/injection, schedule: Q01DX005 (ip), vehicle: Klucel (hydroxypropylcellulose) (HPC).
Setting [2] is: dose: 120.0 mg/kg/injection, schedule: Q01DX005 (ip), vehicle: Klucel (hydroxypropylcellulose) (HPC).
Setting [3] is: dose: 240.0 mg/kg/injection, schedule: Q01DX005 (ip), vehicle: Klucel (hydroxypropylcellulose) (HPC).
Setting [4] is: dose: 50.0 mg/kg/injection, schedule: Q01DX009 (ip), vehicle: saline with Tween-80.
Where [5] appears, read: dose: 100.0 mg/kg/injection, schedule: Q01DX009 (ip), vehicle: saline with Tween-80.
Setting [6] is: dose: 200.0 mg/kg/injection, schedule: Q01DX009 (ip), vehicle: saline with Tween-80.
The mark [7] stands for this setting: dose: 50.0 mg/kg/injection, schedule: Q01DX005 (ip), vehicle: saline with Tween-80.
Setting [8] is: dose: 100.0 mg/kg/injection, schedule: Q01DX005 (ip), vehicle: saline with Tween-80.
The mark [9] stands for this setting: dose: 50.0 mg/kg/injection, schedule: Q01DX009 (ip), vehicle: Klucel (hydroxypropylcellulose) (HPC).
[10] abbreviates: dose: 100.0 mg/kg/injection, schedule: Q01DX009 (ip), vehicle: Klucel (hydroxypropylcellulose) (HPC).
The mark [11] stands for this setting: dose: 200.0 mg/kg/injection, schedule: Q01DX009 (ip), vehicle: Klucel (hydroxypropylcellulose) (HPC).
Where [12] appears, read: dose: 25.0 mg/kg/injection, schedule: Q01DX001 (ip), vehicle: Klucel (hydroxypropylcellulose) (HPC).
Where [13] appears, read: dose: 50.0 mg/kg/injection, schedule: Q01DX001 (ip), vehicle: Klucel (hydroxypropylcellulose) (HPC).
Setting [14] is: dose: 100.0 mg/kg/injection, schedule: Q01DX001 (ip), vehicle: Klucel (hydroxypropylcellulose) (HPC).

Consider `N=C(N)c1ccc(OCCCOc2ccc(C(=N)N)cc2Br)c(Br)c1`, for which the T/C by setting is: (dose: 6.25 mg/kg/injection, schedule: Q04DX003 (ip), vehicle: saline) 100 % of control; (dose: 12.5 mg/kg/injection, schedule: Q04DX003 (ip), vehicle: saline) 109 % of control; (dose: 25.0 mg/kg/injection, schedule: Q01DX009 (ip), vehicle: saline) 160 % of control; (dose: 25.0 mg/kg/injection, schedule: Q04DX003 (ip), vehicle: saline) 113 % of control; (dose: 33.0 mg/kg/injection, schedule: Q04DX003 (ip), vehicle: saline) 113 % of control; (dose: 50.0 mg/kg/injection, schedule: Q01DX009 (ip), vehicle: saline) 90 % of control. Under “dose: 50.0 mg/kg/injection, schedule: Q04DX003 (ip), vehicle: saline”, the T/C is 113 % of control.

Take `S=C(N/N=C\c1nc2ccccc2c2ccccc12)Nc1ccc(Cl)cc1`: the T/C runs as follows: (dose: 100.0 mg/kg/injection, schedule: Q04DX002 (ip), vehicle: Klucel (hydroxypropylcellulose) (HPC)) 90 % of control; (dose: 200.0 mg/kg/injection, schedule: Q04DX002 (ip), vehicle: Klucel (hydroxypropylcellulose) (HPC)) 96 % of control; (dose: 400.0 mg/kg/injection, schedule: Q04DX002 (ip), vehicle: Klucel (hydroxypropylcellulose) (HPC)) 96 % of control.

Regarding `Cc1ccc(S(=O)(=O)SSN2CCCCC2)cc1`, the T/C was 99 % of control (dose: 60.0 mg/kg/injection, schedule: Q01DX005 (ip), vehicle: saline with Tween-80); 101 % of control (dose: 120.0 mg/kg/injection, schedule: Q01DX005 (ip), vehicle: saline with Tween-80); 99 % of control (dose: 240.0 mg/kg/injection, schedule: Q01DX005 (ip), vehicle: saline with Tween-80).

For the compound `CCn1c2ccccc2c2cc(N=C3C(=O)N(C)c4ccccc43)ccc21`, the T/C was 90 % of control under setting [1], 92 % of control under setting [2] and 90 % of control under setting [3].

Take `COn1cc(C(=O)O)c(=O)c2c3sc(=O)n(C)c3ccc21`: the T/C under setting [4] was 101 % of control, the T/C under setting [5] is 94 % of control and the T/C under setting [6] is 99 % of control.

Take `O=C1Nc2ccccc2C1(O)Cc1ccccn1` (stereo not drawn): the T/C by setting is: (dose: 25.0 mg/kg/injection, schedule: Q01DX009 (ip), vehicle: saline with Tween-80) 105 % of control; under setting [4], 95 % of control; under setting [5], 107 % of control; under setting [6], 103 % of control.

In the case of `C=C(C#N)CSc1c(Cl)c(Cl)c(Cl)c(Cl)c1Cl`, the T/C is 88 % of control (dose: 25.0 mg/kg/injection, schedule: Q04DX003 (ip), vehicle: Klucel (hydroxypropylcellulose) (HPC)); 91 % of control (dose: 50.0 mg/kg/injection, schedule: Q04DX003 (ip), vehicle: Klucel (hydroxypropylcellulose) (HPC)); 93 % of control and 95 % of control (dose: 100.0 mg/kg/injection, schedule: Q04DX003 (ip), vehicle: Klucel (hydroxypropylcellulose) (HPC)); 100 % of control and 103 % of control (dose: 200.0 mg/kg/injection, schedule: Q04DX003 (ip), vehicle: Klucel (hydroxypropylcellulose) (HPC)); 105 % of control (dose: 400.0 mg/kg/injection, schedule: Q04DX003 (ip), vehicle: Klucel (hydroxypropylcellulose) (HPC)).

With `CNC(=O)OCc1ncn(-c2ccccc2)c1COC(=O)NC`, the T/C runs as follows: (dose: 12.5 mg/kg/injection, schedule: Q01DX005 (ip), vehicle: distilled water + Tween-80) 99 % of control; (dose: 25.0 mg/kg/injection, schedule: Q01DX005 (ip), vehicle: distilled water + Tween-80) 95 % of control; (dose: 50.0 mg/kg/injection, schedule: Q01DX005 (ip), vehicle: distilled water + Tween-80) 101 % of control; (dose: 100.0 mg/kg/injection, schedule: Q01DX005 (ip), vehicle: distilled water + Tween-80) 101 % of control; (dose: 200.0 mg/kg/injection, schedule: Q01DX005 (ip), vehicle: distilled water + Tween-80) 99 % of control.

For `O=C(CCCCC(=O)Nc1ccc2[nH]c3ccccc3c(=O)c2c1)Nc1ccc2[nH]c3ccccc3c(=O)c2c1`, the T/C by setting is: under setting [7], 104 % of control; under setting [8], 105 % of control; (dose: 200.0 mg/kg/injection, schedule: Q01DX005 (ip), vehicle: saline with Tween-80) 100 % of control.

As for `Cn1nc(CC#N)c2c(=N)n(N)cnc21`, the T/C by setting is: (dose: 25.0 mg/kg/injection, schedule: Q01DX009 (ip), vehicle: Klucel (hydroxypropylcellulose) (HPC)) 119 % of control; under setting [9], 109 % of control; under setting [10], 104 % of control; under setting [11], 113 % of control.

Turning to `CC1=C(CCC(C)CO)OC2CC3C4CCC5CC(O)CCC5(C)C4CCC3(C)C12` (stereo not drawn), the T/C by setting is: (dose: 25.0 mg/kg/injection, schedule: Q01DX009 (ip), vehicle: suspension in saline) 90 % of control and 95 % of control; (dose: 50.0 mg/kg/injection, schedule: Q01DX009 (ip), vehicle: suspension in saline) 96 % of control; (dose: 100.0 mg/kg/injection, schedule: Q01DX009 (ip), vehicle: suspension in saline) 88 % of control and 94 % of control; (dose: 200.0 mg/kg/injection, schedule: Q01DX009 (ip), vehicle: suspension in saline) 87 % of control and 89 % of control.

With `O=N[O-].[Co].[N-]=C=S.[NH2-].[NH2-].[NH2-].[NH2-]`, the T/C is 110 % of control (dose: 12.5 mg/kg/injection, schedule: Q04DX003 (ip), vehicle: saline with Tween-80); 120 % of control (dose: 25.0 mg/kg/injection, schedule: Q04DX003 (ip), vehicle: saline with Tween-80); 120 % of control (dose: 50.0 mg/kg/injection, schedule: Q04DX003 (ip), vehicle: saline with Tween-80).

For `CN(CCO)C1CC(C)(C)N(O)C(C)(C)C1`, the T/C is, setting by setting: (dose: 60.0 mg/kg/injection, schedule: Q01DX005 (ip), vehicle: saline) 96 % of control; (dose: 120.0 mg/kg/injection, schedule: Q01DX005 (ip), vehicle: saline) 100 % of control; (dose: 240.0 mg/kg/injection, schedule: Q01DX005 (ip), vehicle: saline) 100 % of control.

For `O=C(NN=C1c2ccccc2-c2ccccc21)Nc1ccccc1`, the T/C runs as follows: under setting [4], 95 % of control; under setting [5], 96 % of control; under setting [6], 96 % of control.

On to `C=C1CC2C3CCC=C3C(c3ccc(OC)cc3)C2C1=O` (stereo not drawn), for which the T/C is 112 % of control under setting [12]; 109 % of control under setting [13]; 107 % of control and 111 % of control under setting [14]; 106 % of control (dose: 200.0 mg/kg/injection, schedule: Q01DX001 (ip), vehicle: Klucel (hydroxypropylcellulose) (HPC)).

As for `CCCCn1c(C)nc2ccccc21`, the T/C is 100 % of control under setting [7] and 100 % of control under setting [8].

In the case of `CC1(C)CC(C)(OC(=O)c2ccc([N+](=O)[O-])cc2)N=N1` (stereo not drawn), the T/C reads like this: (dose: 12.5 mg/kg/injection, schedule: Q01DX009 (ip), vehicle: other) 102 % of control; (dose: 25.0 mg/kg/injection, schedule: Q01DX009 (ip), vehicle: other) 97 % of control; (dose: 50.0 mg/kg/injection, schedule: Q01DX009 (ip), vehicle: other) 102 % of control; (dose: 100.0 mg/kg/injection, schedule: Q01DX009 (ip), vehicle: other) 100 % of control; (dose: 200.0 mg/kg/injection, schedule: Q01DX009 (ip), vehicle: other) 101 % of control.

As for `COc1ccc2c(c1)C(=O)C=C(c1ccccc1)S2(=O)=O`, the T/C is 110 % of control under setting [1], 110 % of control under setting [2] and 117 % of control under setting [3].

Turning to `CCC(=O)/C=C/c1ccc(N(Cl)Cl)cc1`, the T/C was 107 % of control under setting [12], 106 % of control under setting [13] and 104 % of control under setting [14].

As to `CC(=O)/C(C=NCC(C)(CN=C/C(C(C)=O)=C(/C)O)CN=C/C(C(C)=O)=C(/C)O)=C(\C)O` (stereo not drawn), the T/C is, setting by setting: under setting [9], 97 % of control; under setting [10], 100 % of control; under setting [11], 100 % of control.
